Source: publication PMC7073886, “Structure–Bioactivity Relationships of Lapatinib Derived Analogs against Schistosoma mansoni” (ACS Medicinal Chemistry Letters, 2020)
≈ marks a conversion by molar mass, not a printed value. Entries after “also recorded” stand apart in the source; their conditions may differ.

How the values were obtained:
[1] = Rat hepatocyte Clint; format: in vitro ADME; conditions: rat hepatocytes, intrinsic clearance; read-out: RH CLint
[2] = Human liver microsomal Clint; format: in vitro ADME; conditions: human liver microsomes, intrinsic clearance; read-out: HLM Clint
[3] = system: adult S. mansoni; test: Phenotypic screen of adult S. mansoni worms, severity scores and descriptors; format: cell-based, Schistosoma mansoni; conditions: for Descriptors (10 µM) 1 h / Severity Scores (10 μM) 1 h / Severity Scores (10 μM) 5 h / Severity Scores (10 μM) 24 h / Severity Scores (10 μM) 48 h / Descriptors (10 µM) 5 h / Descriptors (10 µM) 24 h / Descriptors (10 µM) 48 h: adult S. mansoni; for Descriptors (10 µM) 1 h / Descriptors (10 µM) 5 h / Descriptors (10 µM) 24 h / Descriptors (10 µM) 48 h: phenotypic descriptors; for Severity Scores (10 μM) 1 h / Severity Scores (10 μM) 5 h / Severity Scores (10 μM) 24 h / Severity Scores (10 μM) 48 h: scale 0 (no activity) to 4 (maximal activity); for bioactivity against adult S. mansoni: adult schistosomes; for Severity Scores (10 μM) 1 h / Severity Scores (10 μM) 5 h / Severity Scores (10 μM) 24 h / Severity Scores (10 μM) 48 h / bioactivity against adult S. mansoni: 10 μM
From the text: Because the schistosome parasite can present multiple and dynamic phenotypic responses to chemical insult,[16] we employ a constrained nomenclature of descriptors to describe the changes in the parasite as a function of time and concentration (e.g., motility, density, and shape; and in the case of the adult parasite, an inability to adhere to the bottom of the assay dish). These descriptors are converted into severity scores on a scale of 0 (green)–4 (severest/red) that allow for partially quantitative comparisons of compound effects.[1]−[19] […] The descriptors themselves and their respective scores are detailed in the Supporting Information, Table S1. Severity score data are presented in the results (with the corresponding descriptors detailed in the Supporting Information, Tables S2–S8), and eight new analogs developed and synthesized in support of this effort are described. Finally, absorption, distribution, metabolism and excretion (ADME) data of all compounds presented in this work are reported in the Supporting Information, Table S15.
Table S1. Descriptors and associated severity scores used for S. mansoni adults.
R (rounded or shape altered 1
On sides (adults unable to 1
Shrunk (adults are shorter 1
surface (tegument) of adults)
dfailed to create analytical method
Maintenance of the Schistosoma mansoni life cycle (NMRI isolate), the preparation of adult worms (≥ 42-
days-old), and their co-incubation with test compounds were as described.7-9 Phenotypic responses were
visually recorded using a constrained nomenclature and converted to severity scores on a scale from zero
(no activity) to 4 (maximal activity).8, 9 Use of hamsters for maintaining the S. mansoni life-cycle was
approved by the Institutional Animal Care and Use Committee of the University of California San Diego.
The human myelomonocytic cell line THP -1 was grown at 37 °C and 5% CO2 in RPMI-1640 supplemented
with 10% iFBS, 2 mM glutamate, 100 U/mL penicillin and […] streptomycin.
Drug toxicity to HepG2 cells .10 HepG2 cells line were obtained from the American Type Culture
Collection and cultured in Minimal Essential Medium (MEM) supplemented with 0.19% sodium
bicarbonate, 10% Fetal Bovine Serum, 2 mM L -glutamine, 0.1 mM MEM non-essential amino, 0.009
mg/mL insulin, 1.76 mg/mL bovine serum albumin. The viability of the cells was measured using the MTT
(thiazolyl blue reduction) method. Briefly, ninety -six-well plates were seeded with 2.5 × 10^4 cells/well in
170 ml of culture medium and incubated overnight in 5% CO 2 at 37 °C. Cells were exposed to different
experimental compounds in DMSO. After 48 hours incubation, the viability of the cells was assessed using
MTT (thiazolyl blue reduction) as a dose response assay (11 two -fold serial dilutions) to obtain a calculated
IC50 determination. 4-Azaindolo[2,1-b]quinazoline-6,12-dione is used as a toxicity positive control and
each assay plate includes the following 3 additional controls: a) background control: no cells and no drug
was added, b) target control: cells added but no drugs, and c) DMSO control: same as the target control
except the culture media contains 0.6% DMSO. Absorbance was determined in all wells using a Perkin
Elmer, Ensight plate reader. The fifty percent inhibitory concentrations (IC50’s) were determined using
GraphPad Prism nonlinear regr ession (sigmoidal dose -response, variable slope) equation .
ADME Experiment Protocols
Aqueous pH 7.4 Solubility. Compounds were dried down from 10 mM DMSO solutions using centrifugal
evaporation technique. Phosphate buffer (0.1 M pH 7.4) was added and StirStix were inserted in the glass
vials, with shaking then performed at a constant temperature of 25 °C for 20 -24 h. This step was followed
by double centrifugation with a tip wash in between, to ensure that no residues of the dried compounds
interfere. The solutions were diluted before analysis and quantification using LC/MS/MS was performed.

[4] = Aqueous pH 7.4 solubility; format: physicochemical; conditions: for solubility: aqueous buffer, thermodynamic from solid, phosphate buffer pH 7.4, 25 °C, 20-24 h, read-out: aq sol (aqueous solubility)
[5] = Log D7.4 shake-flask octanol-water; format: physicochemical; conditions: pH 7.4
Experimental: Log D7.4. Shake-flask octanol-water distribution coefficient was determined at pH 7.4 (Log D7.4). The aqueous solution used is 10 mM sodium phosphate pH 7.4 buffer. The method has been validated for Log D7.4 ranging from -2 to 5.0.
Human Plasma Protein Binding (PPB). PPB was determined using equilibrium dialysis (RED device) to separate free from bound compound. The amount of compound in plasma (10 µM initial concentration) and in dialysis buffer (pH 7.4 phosphate buffer) was measured by LC-MS/MS after equilibration at 37 °C in a dialysis chamber. The fraction unbound (fu) is reported.
Human Liver Microsomal Clint. In vitro intrinsic clearance was determined from human liver microsomes using a standard approach.11 Following incubation and preparation, the samples were analyzed using […]
Rat Hepatocyte Clint. In vitro intrinsic clearance was determined from rat hepatocytes using a standard approach.11 Following incubation and preparation, the samples were analyzed using LC/MS/MS. Refined […]
Calculated LogP and LogD values. Both LogP and LogD predictions are based on a modified version of the method12 where the predicted partition coefficients are composed of the molecules’ atomic increments.
General Chemistry. All starting materials were commercially obtained and were used without further purification, unless specified. Reaction solvents were purified by passage through alumina columns on a purification system manufactured by Innovative Technology (Newburyport, MA). NMR spectra were obtained on Varian NMR systems, operating at 400 or 500 MHz for 1 H acquisitions. LCMS analysis was performed using a Waters AllianceHT e2795 reverse phase HPLC (Waters SunFire C18 4.6 × 50 mm, 3.5 μm column), with a Waters 2996 photodiode array detector scanning from 210 nm to 600 nm, and Waters Micromass ZQ detector (electrospray ionization). Where required, final compounds were purified by preparative reverse phase HPLC (columns Waters Symmetry RP8 30 × 50 mm, 5 μm column, or OBD RP18 30 × 50 mm, 5 μm), with a single wavelength UV−visible detector and Waters Micromass ZQ (electrospray ionization).

[6] = Human plasma protein binding (equilibrium dialysis); format: in vitro ADME; conditions: pH 7.4, 10 µM, 37 °C, read-out: human PPB (plasma protein binding) (converted)

SMILES | hepatocyte CLint [1] | microsomal CLint [2] | Descriptors (10 µM) 1 h [3] | Severity Scores (10 μM) 1 h [3] | Severity Scores (10 μM) 5 h [3] | Severity Scores (10 μM) 24 h [3] | Severity Scores (10 μM) 48 h [3] | bioactivity against adult S. mansoni [3] | solubility [4] | logD [5] | Descriptors (10 µM) 5 h [3] | Descriptors (10 µM) 24 h [3] | Descriptors (10 µM) 48 h [3] | fraction unbound [6] | decrease in aqueous solubility compared with 3 ([4]; relative to 3)
CN1CCCN(c2ncc(-c3ccc4c(c3)ncc3c5ccccc5[nH]c43)cn2)CC1 [6b] | 19 µL/min/1e6 cells | 110 µL/min/mg | none | 0 | 1 | 1 | 4 | minimal bioactivity after 5 h; also recorded: potent activity after 48 h | 35 µM (≈ 14.3 µg/mL) | – | – | – | – | – | –
Cc1c(-c2cnc(N3CCCN(C)CC3)nc2)ccc2c(Nc3cnccn3)ccnc12 [9b] | 27 µL/min/1e6 cells | – | none | 0 | 0 | 0 | 0 | no bioactivity | – | 2.5 | none | none | none | 0.18 | –
O=C(O)C1CCCN1c1ncc(-c2ccc3c(Nc4cnccn4)ccnc3c2)cn1 (centres unmarked) [3c] | < 1 µL/min/1e6 cells | < 3 µL/min/mg | none | 0 | 0 | 0 | 0 | no bioactivity | – | 0.1 | none | none | none | – | –
c1cc(-c2ccc3c(c2)ncc2c4ccccc4[nH]c32)cc(N2CCOCC2)c1 [6a] | 24 µL/min/1e6 cells | 57 µL/min/mg | none | 0 | 1 | 0 | 1 | minimal bioactivity after 5 h | 0.1 µM (≈ 0.0379 µg/mL) | 5.1 | – | none | – | – | –
COc1ccc(Nc2ccnc3cc(-c4cnc(N5CCCN(C)CC5)nc4)ccc23)cc1Cl [5d] | 9 µL/min/1e6 cells | 120 µL/min/mg | – | 1 | 3 | 4 | 4 | severe phenotypic responses | 6 µM (≈ 2.85 µg/mL) | 2.7 | – | – | – | – | 7 fold
CN(CCNc1ncc(-c2ccc3c(Nc4cnccn4)ccnc3c2)cn1)C(=O)OC(C)(C)C [3e] | > 300 µL/min/1e6 cells | > 300 µL/min/mg | none | 0 | 0 | 0 | 4 | maximal phenotypic response after 48 h | – | 4.1 | none | none | – | – | –
CC(C)(C)OC(=O)N1CCN(c2ncc(-c3ccc4c(Nc5cnccn5)ccnc4c3)cn2)CC1 [3a] | 32 µL/min/1e6 cells | > 300 µL/min/mg | none | 0 | 0 | 0 | 0 | no bioactivity | – | 4.7 | none | none | none | – | –
CCCN1CCCN(c2ncc(-c3ccc4c(Nc5cnccn5)ccnc4c3)cn2)CC1 [4f] | 32 µL/min/1e6 cells | > 300 µL/min/mg | none | 0 | 0 | 0 | 0 | – | – | 3.3 | none | none | none | – | –
COC(=O)C1CCCN1c1ncc(-c2ccc3c(Nc4cnccn4)ccnc3c2)cn1 (centres unmarked) [3d] | 230 µL/min/1e6 cells | 220 µL/min/mg | none | 0 | 0 | 3 | 4 | bioactivity after 24 h, progressing to the severest response by 48 h | – | 3.5 | none | – | – | – | –
CCN1CCCN(c2ncc(-c3ccc4c(Nc5cnccn5)ccnc4c3C)cn2)CC1 [9c] | 21 µL/min/1e6 cells | – | none | 0 | 0 | 0 | 0 | no bioactivity | – | – | none | none | none | 0.12 | –
CCN1CCN(c2ncc(-c3ccc4c(Nc5cnccn5)ccnc4c3)cn2)CC1 [4b] | 45 µL/min/1e6 cells | > 300 µL/min/mg | none | 0 | 1 | 1 | 2 | activity after 5 h | – | 3.5 | – | – | S, on sides | – | –
CCCN1CCN(c2ncc(-c3ccc4c(Nc5cnccn5)ccnc4c3)cn2)CC1 [4c] | 45 µL/min/1e6 cells | – | none | 0 | 1 | 2 | 4 | activity after 5 h | – | 4.2 | – | On sides, S | – | – | –
